# Data reported in paper PMC5790467, “Enhanced anti-tumor efficacy and mechanisms associated with docetaxel-piperine combination- in vitro and in vivo investigation using a taxane-resistant prostate cancer model” (Oncotarget, 2017).
# Where two headings read alike, the source gives them in different places.
# How the values were obtained:
# [1] = ketoconazole 200 mg once daily for three days; cancer patients; cited from earlier work
# PC3 tumor xenografts = experiment: Tumor growth in mice with PC3 tumor xenografts; format: in vivo, ICR-NOD/SCID mice; conditions: DTX 20 mg/kg once a week i.v., n = 3
# Method: (§1) The following experimental protocol was adopted after approval by the Animal Research Ethics Committee at the Chinese University of Hong Kong. PC3 and PC3-TxR cells were cultured in RPMI 1640 medium containing 10% FBS and 1% penicillin-streptomycin in a humidified atmosphere of 5% CO2 at 37°C. PC3 and PC3-TxR cell pellets were re-suspended in serum free RPMI1640 and diluted by Matrigel™ Basement Membrane Matrix (BD Biosciences, Bedford, MA, USA) to the density of 3.33 × 10^6cells/ml. Male ICR-NOD/SCID mice (Laboratory Animal Services Center at the Chinese University of Hong Kong) weighing 25 to 30 g (age 6–8 weeks) was anesthetized with an intraperitoneal injection of a cocktail containing 87 mg/kg ketamine and 8.7 mg/kg xylazine (diluted with saline and the injection volume was about 0.1 ml). The cell suspension was injected subcutaneously to both the left and right flank region. The tumors were allowed to grow for about 2 weeks. Tumor volumes were measured twice per week (tumor volume = [(W^2 × L)/2], where W is the tumor measurement at the widest point, and L is the tumor dimension at the longest point). When the tumors reach about 100 mm^3, treatment was started and the date was designated as Day 0.
# PC3-TxR tumor xenografts = experiment: Tumor growth in mice with PC3-TxR (taxane-resistant) tumor xenografts; format: in vivo, ICR-NOD/SCID mice; conditions: DTX 20 mg/kg once a week i.v.
# Method: as §1
# [2] = Body weight and tolerability in mice with TxR tumor xenografts; conditions: TxR tumor xenograft mice; two weeks of treatment; control 96%
# Method: For oral administration of PIP, in 1 ml of PIP dosing solution, 100 µl of its stock solution was solubilized with 500 µl of PEG 400 and 400 µl of physiological saline and the mixture was administrated orally to mice at the dose of 0.1 ml/10 g body weight. […] On Day 0, mice with PC3 cell xenografts were divided into two groups and mice with PC3-TxR cell xenografts were divided into four groups. Mice in each group were treated according to Supplementary Table 3 and the drug dosing lasted for 2 weeks with body weight and tumor sized measured twice per week. […] At the end of experiment, the mice were anesthetized followed by haemospasia to death by cardiac puncture.
# [3] = DTX concentration in plasma and tissues of TxR tumor bearing mice (LC/MS/MS); format: in vivo, ICR-NOD/SCID mice; conditions: for concentration at 2 h: ICR-NOD/SCID, mouse, iv, 20 mg/kg
# Method: On Day 14, mice were sacrificed two hours post drug administration. Blood samples were collected by cardiac puncture followed by centrifugation at 5000 rpm for 3 min for obtaining the plasma. Brain, lung, liver, kidney and tumor were collected and weighed. About 100 mg of each tissue samples were carefully weighed and homogenized after being spiked with 300 µl of formic acid (0.2%, v/v). About 50 µl of plasma or tissue homogenates were spiked with 5 µl of 50% acetonitrile in water and 150 µl of mixture of acetonitrile and methanol (50:50, v/v) containing glibenclamide at 50 ng/ml as internal standard. After centrifugation at 13000 rpm for 10 min, the supernatants were injected into LC/MS/MS system which consisted of an Agilent 6430 triple quadrupole mass spectrometer equipped with an electrospray ionization source (ESI), two Agilent 1290 series pumps and autosampler (Agilent Technologies, Inc., CA, USA). The analytes were separated using a Waters Nova-Pak^ÒC18 column (150 mm×3.9 mm, i.d., 4 µm particle size) protected by a collared frit (4/4.6 mm i.d., 0.5 µm pore size, Thermo Scientific full name, city, state, country). The mobile phase consisted of 0.2% formic acid and acetonitrile (50:50, v/v) with a flow rate at 0.4 ml/min.
# PC3-TxR cells = experiment: Cell viability (cytotoxicity) of PC3-TxR cells; format: cell-based; conditions: Homo sapiens
# Excerpt: www.impactjournals.com/oncotarget/ Oncotarget, Supplementary Materials 2017
# investigation using a taxane-resistant prostate cancer model
# Supplementary Figure 1: Cell viability (measured from triplicate samples) of PC3-TxR cells. (A) The cytotoxicity of PIP
# (1 picture or pasted object on this page, not shown here)
# P-gp = P-gp (Homo sapiens, UniProt P08183); experiment: Uptake of DTX in MDCK/MDR1 cells with or without PIP pre-incubation; format: cell-based; design: expressed in transfected cells; host or cells: MDCK (MDCK/MDR1), gift from Prof; P. Borst
# Sequence of P-gp (P08183 whole entry): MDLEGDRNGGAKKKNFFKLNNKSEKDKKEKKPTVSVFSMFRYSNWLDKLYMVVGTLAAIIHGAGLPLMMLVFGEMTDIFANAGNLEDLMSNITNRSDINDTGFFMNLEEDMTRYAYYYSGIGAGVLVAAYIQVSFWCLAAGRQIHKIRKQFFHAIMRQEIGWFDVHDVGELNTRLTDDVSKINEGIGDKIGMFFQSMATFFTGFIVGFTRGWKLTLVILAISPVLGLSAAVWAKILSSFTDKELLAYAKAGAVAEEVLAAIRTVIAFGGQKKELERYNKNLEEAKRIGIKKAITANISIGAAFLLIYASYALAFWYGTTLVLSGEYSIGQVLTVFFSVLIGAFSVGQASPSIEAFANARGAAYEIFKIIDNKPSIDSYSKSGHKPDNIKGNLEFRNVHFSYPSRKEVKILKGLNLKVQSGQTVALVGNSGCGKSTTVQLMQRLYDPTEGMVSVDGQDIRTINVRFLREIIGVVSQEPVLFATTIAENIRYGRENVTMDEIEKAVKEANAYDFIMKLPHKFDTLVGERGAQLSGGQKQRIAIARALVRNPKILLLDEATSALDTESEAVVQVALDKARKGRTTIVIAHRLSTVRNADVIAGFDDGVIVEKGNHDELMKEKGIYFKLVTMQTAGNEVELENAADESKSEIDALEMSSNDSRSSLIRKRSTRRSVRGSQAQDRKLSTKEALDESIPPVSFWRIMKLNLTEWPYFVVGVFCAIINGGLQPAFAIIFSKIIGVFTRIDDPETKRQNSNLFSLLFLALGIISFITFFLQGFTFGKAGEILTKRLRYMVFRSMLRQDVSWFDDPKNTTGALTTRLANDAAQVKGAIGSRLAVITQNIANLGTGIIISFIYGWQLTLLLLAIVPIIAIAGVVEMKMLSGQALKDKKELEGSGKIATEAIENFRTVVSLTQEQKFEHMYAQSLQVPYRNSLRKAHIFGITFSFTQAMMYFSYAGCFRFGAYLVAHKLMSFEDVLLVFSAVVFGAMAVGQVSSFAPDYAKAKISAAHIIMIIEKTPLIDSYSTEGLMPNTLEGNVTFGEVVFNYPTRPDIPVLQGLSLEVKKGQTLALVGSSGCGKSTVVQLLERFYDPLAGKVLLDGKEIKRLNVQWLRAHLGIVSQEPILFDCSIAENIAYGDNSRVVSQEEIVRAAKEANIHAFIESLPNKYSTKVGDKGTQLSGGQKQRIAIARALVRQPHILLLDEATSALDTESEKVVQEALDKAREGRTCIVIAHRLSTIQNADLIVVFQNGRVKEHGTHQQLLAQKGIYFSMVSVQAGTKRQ
# Method: MDCK cells transfected with human gene (MDCK/MDR1) were cultured in Dulbecco’s modified Eagle’s medium supplemented with 10% FBS and 1% penicillin-streptomycin. Cells were subcultured when the confluence reached 80% by trypsinization with 0.25% of trypsin-EDTA. MDCK/MDR1 cells were seeded at a density of 2 × 10^5 cells/well to 24-well and incubated for 24 h. […] After washing twice with ice-cold HBSS, cells were collected in 100 µl of formic acid (0.2%, v/v) using a scraper. BCA Protein Quantification Kit (Abcamplc., Cambridge, UK) was used to quantify the protein content. Cell lysate was treated by 300 µl of mixture of acetonitrile and methanol (50:50, v/v) containing glibenclamide at 50 ng/ml, followed by sonication for 15 min.
# [4] = Day 14, two hours after i.v. bolus DTX, TxR mice
smiles,measurement,setting,value
CC(=O)N1CCN(c2ccc(OCC3COC(Cn4ccnc4)(c4ccc(Cl)cc4Cl)O3)cc2)CC1 (stereo not shown) [Ketoconazole],reduction of the clearance of DTX,[1],49%
"CC(=O)O[C@@]12CO[C@@H]1C[C@H](O)[C@@]1(C)C(=O)[C@H](O)C3=C(C)[C@@H](OC(=O)[C@H](O)[C@@H](NC(=O)OC(C)(C)C)c4ccccc4)C[C@@](O)([C@@H](OC(=O)c4ccccc4)[C@H]21)C3(C)C [DTX, Docetaxel]",percentage of tumor size increase,PC3 tumor xenografts,55%
same,percentage of tumor size increase,"PC3-TxR tumor xenografts; TxR tumor xenografts, two weeks after drug administration, PIP 50 mg/kg daily p.o.",217%
same,inhibitory effect on the tumor growth in TxR tumor xenografts,"PC3-TxR tumor xenografts; model verification experiment, n = 3",no inhibitory effect
same,percentage of bodyweights,[2],79%
same,DTX plasma concentration,[3]; [4],703.847 ± 311.129 ng/mL
same,"DTX tissue concentration, Brain",[3]; [4],0.022 ± 0.009 ng/mg
same,"DTX tissue concentration, Kidney",[3]; [4],2.322 ± 1.447 ng/mg
same,"DTX tissue concentration, Liver",[3]; [4],1.080 ± 0.763 ng/mg
same,"DTX tissue concentration, Tumor",[3]; [4],1.312 ± 0.754 ng/mg
same,concentration at 2 h,[3]; brain,22 ng/g
same,concentration at 2 h,[3]; kidney,2320 ng/g
same,concentration at 2 h,[3]; liver,1080 ng/g
same,concentration at 2 h,[3]; lung,5160 ± 2890 ng/g
same,concentration at 2 h,[3]; plasma,704 ng/mL
same,concentration at 2 h,[3]; tumor,1310 ng/g
same,IC50,"PC3-TxR cells; read-out: IC50 of DTX on PC3-TxR, DTX + 5 μg/ml PIP",17.6 nM
same,IC50,"PC3-TxR cells; read-out: IC50 of DTX on PC3-TxR, DTX + 10 μg/ml PIP",10.4 nM
same,IC50,"PC3-TxR cells; read-out: IC50 of DTX on PC3-TxR, DTX + 25 μg/ml PIP",5.5 nM
same,IC50,"PC3-TxR cells; read-out: IC50 of DTX on PC3-TxR, DTX alone",41.4 nM
same,cell uptake of DTX,"P-gp; DTX 1 μM, absence of PIP",0.35 ± 0.05 nmol/min/mg protein
same,cell uptake of DTX,"P-gp; DTX 5 μM, absence of PIP",2.44 ± 0.14 nmol/min/mg protein
same,cell uptake of DTX,"P-gp; DTX 5 μM, after pre-incubation with PIP",3.57 ± 0.75 nmol/min/mg protein
same,cell uptake of DTX,"P-gp; DTX 10 μM, absence of PIP",3.30 ± 0.38 nmol/min/mg protein
same,cell uptake of DTX,"P-gp; DTX 10 μM, after pre-incubation with PIP",5.20 ± 0.53 nmol/min/mg protein
